Test results from US5952368A, “5-aroylpyrrol-2-ylmethylarene derivatives” (Syntex (U.S.A.) Inc., priority 1997, dated 1999).

Key:
air pouch PGE2 formation = experiment: Inhibition of eicosanoid (PGE2) synthesis in vivo: carrageenan air-pouch model in rats; parameters: species or system rat; conditions: oral, male rats
Description: In this assay, an air-pouch is created in the rat and the PGE2 levels in the air-pouch exudate are measured by enzyme immunoassay. Briefly, male rats were anesthetized using a 60:40 CO2 :O2 mixture and subsequently injected subcutaneously with 20 ml of sterilized air, under aseptic conditions, in the proximal area of the dorsum. This injection of sterile air causes the creation of a subcutaneous "air pouch". The next day, a further 10 ml of sterile air was injected into the previously formed pouch using the same technique. […] Control rats received vehicle alone. After 30 minutes, 5 ml of a 0.5% solution of carrageenan (Sigma, Lambda Type IV) was injected into the air pouch. The rats were euthanized 3 or 6 h after the compound administration. […] The total exudate volume was recorded, and the samples were analyzed for PGE2 and 6-keto PGF1 by ELISA (Titerzyme®, PerSeptive Diagnostics) and TxB2 by radioimmuno assay (New England Nuclear Research, Catalog No. NEK-037), according to the manufacturer's directions.
The mean concentrations of PGE2 were calculated for each group. The anti-inflammatory activity of test materials is expressed as the percent inhibition of PGE2 formation in the test group relative to the control group.

[1] = test system: cognitive decline of Alzheimer's patients; conditions: cited from earlier work
COX I = target: T1, COX I (Homo sapiens, UniProt P23219); experiment: Inhibition of COX I in vitro (radiometric assay, 14C arachidonic acid, partially purified enzyme); type: biochemical; conditions: partially purified COX I, 20 micromolar arachidonic acid, 10 min preincubation, room temperature; read-out: COX I IC50
T1 construct: made in house; baculovirus-infected insect cells by own knowledge of the cited Barnett et al. 1994
T1 sequence (P23219 24-599): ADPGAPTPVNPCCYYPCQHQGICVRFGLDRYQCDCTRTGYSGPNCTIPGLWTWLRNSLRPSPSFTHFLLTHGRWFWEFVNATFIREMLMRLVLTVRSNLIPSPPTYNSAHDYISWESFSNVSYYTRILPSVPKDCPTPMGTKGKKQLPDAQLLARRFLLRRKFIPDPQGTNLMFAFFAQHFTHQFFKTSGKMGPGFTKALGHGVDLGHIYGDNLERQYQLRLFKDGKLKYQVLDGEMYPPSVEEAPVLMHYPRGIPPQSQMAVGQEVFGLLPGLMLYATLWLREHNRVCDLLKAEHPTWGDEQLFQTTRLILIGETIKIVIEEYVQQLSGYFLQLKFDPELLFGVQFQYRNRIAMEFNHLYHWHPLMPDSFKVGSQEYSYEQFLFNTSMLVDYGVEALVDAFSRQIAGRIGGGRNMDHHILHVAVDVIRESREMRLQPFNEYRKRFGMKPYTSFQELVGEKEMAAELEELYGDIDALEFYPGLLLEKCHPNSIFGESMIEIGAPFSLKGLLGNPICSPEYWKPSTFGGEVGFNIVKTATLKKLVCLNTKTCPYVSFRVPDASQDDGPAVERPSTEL

COX II = target: T2, COX II (Homo sapiens, UniProt P35354); experiment: Inhibition of COX II in vitro (radiometric assay, 14C arachidonic acid, partially purified enzyme); type: biochemical; conditions: partially purified COX II, 20 micromolar arachidonic acid, 10 min preincubation, room temperature; read-out: COX II IC50
T2 construct: made in house; baculovirus-infected insect cells by own knowledge of the cited Barnett et al. 1994
T2 sequence (P35354 18-604): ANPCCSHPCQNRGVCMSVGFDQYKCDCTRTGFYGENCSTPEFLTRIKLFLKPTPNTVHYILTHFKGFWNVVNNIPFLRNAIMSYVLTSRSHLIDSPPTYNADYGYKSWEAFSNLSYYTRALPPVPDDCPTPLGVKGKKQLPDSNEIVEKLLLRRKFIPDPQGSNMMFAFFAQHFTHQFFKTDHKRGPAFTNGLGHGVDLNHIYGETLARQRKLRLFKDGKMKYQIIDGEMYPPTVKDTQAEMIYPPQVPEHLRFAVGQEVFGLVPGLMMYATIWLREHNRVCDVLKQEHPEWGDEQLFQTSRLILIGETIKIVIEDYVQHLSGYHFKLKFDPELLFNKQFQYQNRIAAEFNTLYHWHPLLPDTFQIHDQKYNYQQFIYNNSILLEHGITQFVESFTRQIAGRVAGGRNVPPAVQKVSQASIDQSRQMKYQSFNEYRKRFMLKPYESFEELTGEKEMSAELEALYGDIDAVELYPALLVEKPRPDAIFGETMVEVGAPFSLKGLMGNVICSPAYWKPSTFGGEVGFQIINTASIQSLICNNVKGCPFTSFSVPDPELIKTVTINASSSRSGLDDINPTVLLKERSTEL

[2] = test system: carrageenan-induced paw edema; experiment: Anti-inflammatory activity: inhibition of carrageenan-induced paw edema in the rat; type: in vivo; conditions: 10 mg/Kg, oral, female rats, 3 h after carrageenan
Description: The anti-inflammatory activity of compounds of this invention was determined by measuring the inhibition of carrageenan-induced paw edema in the rat, using a modification of the method described in Winter C. A. et al. (1962) "Carrageenan-Induced Edema in Hind Paw of the Rat as an Assay for Anti-inflammatory Drugs". Proc. Soc. Exp. Biol. Med. 111: 544-547. This assay has been used as a primary in vivo screen for anti-inflammatoryactivity of most NSAIDs, and is considered predictive of human efficacy. Briefly, test materials were administered orally to female rats in a volume of 1 ml prepared as solutions or suspensions in an aqueous vehicle containing 0.9% NaCl, 0.5% sodium carboxymethyl-cellulose, 0.4% polysorbate 80, 0.9% benzyl alcohol and 97.3% distilled water. Control rats received vehicle alone. After 1 h 0.05 ml of a 0.5% solution of Carrageenan (Type IV Lambda, Sigma Chemical Co.) in 0.9% saline was injected into the subplantar region of the right hind paw. Three hours later the rats were euthanized in a carbon dioxide atmosphere; hind paws were removed by severing at the tatso-crural joint; and the left and right paws were weighed. The increase in weight of the right paw over the left paw was obtained for each animal and the mean increases were calculated for each group. The anti-inflammatory activity of the test materials is expressed as the percent inhibition of the increase in hind paw weight of the test group relative to the vehicle-dosed control group.

[3] = test system: acetic acid-induced writhing; experiment: Analgesic activity: Acetic Acid-induced Rat Writhing Assay; type: in vivo; conditions: 10 mg/Kg, oral, male Sprague Dawley rats
Text: The analgesic activity of compounds of this invention may be determined by the Acetic Acid-induced Rat Writhing Assay, using a modification of the method described in Berkenkopf, J. W. and Weichman, B. M. "Production of Prostacyclin in Mice following Intraperitoneal Injection of Acetic Acid, Phenylbenzoquinone and Zymosan: Its Role in the Writhing Response" Prostaglandins: 36: 693-70 (1988). This assay is one of several acute assays which have been used to assess the analgesic activity of NSAIDs, and is considered predictive of human efficacy. The test materials were administered orally to male Sprague Dawley rats in a volume of 1 ml/100 g body weight as solutions or suspensions in an aqueous vehicle containing 0.9% NaCl 0.5% sodium carboxymethyl-cellulose, 0.4% polysorbate 80, 0.9% benzyl alcohol and 97.3% water. Control rats received vehicle alone. One hour after compound administration, 0.3 ml/100 g body weight of 0.75% solution of acetic acid was injected intraperitoneally. The acetic acid injection induces a series of characteristic writhing responses, which were counted over the period between 15 and 30 minutes after the injection. The analgesic activity of test materials is expressed as the percentage inhibition of writhing in the test group relative to the control group.

Row | IC50 (COX I) [µM] | IC50 (COX II) [nM] | SMILES | % Inhibition of air pouch PGE2 formation (air pouch PGE2 formation; 2-5 mg/Kg, time not given) [%] | effect on cognitive decline of Alzheimer's patients (in words) [1] | % Inhibition of air pouch PGE2 formation (air pouch PGE2 formation; 10 mg/Kg, 3 hr) [%] | % Inhibition (of the increase in hind paw weight) [2] [%] | % Inhibition of writhing responses [3] [%] | % Inhibition of air pouch PGE2 formation (air pouch PGE2 formation; 30 mg/Kg, 3 hr) [%] | % Inhibition of air pouch PGE2 formation (air pouch PGE2 formation; 30 mg/Kg, 6 hr) [%]
1 | – | – | COc1ccc2c(c1)c(CC(=O)O)c(C)n2C(=O)c1ccc(Cl)cc1 [Indomethacin, indomethacin, reference compound] | > 70 | inhibit the cognitive decline of Alzheimer's patients | – | – | – | – | –
2 | 0.76 | 80 | Cc1cc(Cc2ccc(NS(C)(=O)=O)cc2C#N)n(C)c1C(=O)c1ccc(Cl)cc1 [compound 19, N-{3-Cyano-4-[5-(4-chlorobenzoyl)-1,4-dimethyl-1H-pyrrol-2-ylmethyl]phenyl}-methanesulfonamide] | – | – | 74 | 36 | – | – | –
3 | 10 | 50 | Cc1ccc(C(=O)c2ccc(Cc3ccc(NS(=O)(=O)CCO)cc3F)n2C)cc1 [compound 36, N-{3-Fluoro-4-[5-(4-methylbenzoyl)-1-methyl-1H-pyrrol-2-ylmethyl]phenyl}-2-(hydroxy)ethanesulfonamide] | – | – | 96 | 31 | 16 | – | –
4 | 61 | 80 | Cc1ccc(C(=O)c2ccc(Cc3ccc(NS(=O)(=O)CCO)cc3F)n2C)c(C)c1 [compound 48, N-{3-Fluoro-4-[5-(2,4-dimethylbenzoyl)-1-methyl-1H-pyrrol-2-ylmethyl]phenyl}-2-(hydroxy)ethanesulfonamide] | – | – | – | 35 | – | 64 | –
5 | < 0.1 | 230 | COc1ccc(C(=O)c2c(C)cc(Cc3ccc(NS(=O)(=O)CCO)cc3F)n2C)cc1 [compound 98, N-{3-Fluoro-4-[5-(4-methoxybenzoyl)-1,4-dimethyl-1H-pyrrol-2-ylmethyl]phenyl}-2-(hydroxy)ethanesulfonamide] | – | – | 98 | 42 | 71 | – | –
6 | 5.4 | 120 | Cc1cc(Cc2ccc(NS(=O)(=O)N(C)C)cc2)n(C)c1C(=O)c1ccc(Cl)cc1 [compound 140, 1-{4-[5-(4-Chlorobenzoyl)-1,4-dimethyl-1H-pyrrol-2-ylmethyl]phenyl}-3,3-di-methylsulfamide] | – | – | – | 27 | 4 | – | 83
7 | 2.9 | 60 | Cc1cc(Cc2ccc(NS(N)(=O)=O)cc2F)n(C)c1C(=O)c1ccc(Cl)cc1 [compound 146, 1-{3-Fluoro-4-[5-(4-chlorobenzoyl)-1,4-dimethyl-1H-pyrrol-2-ylmethyl]phenyl}sulfamide] | – | – | 93 | 40 | – | – | –
8 | 16.8 | 95 | Cc1ccc(C(=O)c2ccc(Cc3ccc(NS(N)(=O)=O)cc3F)n2C)c(C)c1 [compound 165, 1-{3-Fluoro-4-[5-(2,4-dimethylbenzoyl)-1-methyl-1H-pyrrol-2-ylmethyl]phenyl}sulfamide] | – | – | 52 | 17 | – | – | –
9 | 49 | 450 | Cc1cc(Cc2ccc(NS(C)(=O)=O)cn2)n(C)c1C(=O)c1ccc(Cl)cc1 [compound 263, N-{2-[5-(4-Chlorobenzoyl)-1,4-dimethyl-1H-pyrrol-2-ylmethyl]pyridin-5-yl}-methanesulfonamide] | – | – | – | 40 | 31 | – | 80
10 | 235 | 550 | COc1ccc(C(=O)c2ccc(Cc3ccc(NS(C)(=O)=O)cn3)n2C)cc1 [compound 288, N-{2-[5-(4-Methoxybenzoyl)-1-methyl-1H-pyrrol-2-ylmethyl]pyridin-5-yl}-methanesulfonamide] | – | – | 53 | 20 | – | – | –
11 | 6.6 | 540 | Cc1cc(Cc2ccc(O)cc2)n(C)c1C(=O)c1ccc(Cl)cc1 [compound 343, 4-{5-(4-Chlorobenzoyl)-1,4-dimethyl-1H-pyrrol-2-ylmethyl}phenol] | – | – | – | 35 | – | – | –
